Test results: patent US7968710B2, “Prokineticin 1 receptor antagonists” (Janssen Pharmaceutica NV, priority 2005, dated 2011)
“And” between values parts separate entries of the source, which are not always exact repeats. Identical values can stand only once.

How the values were obtained:
[1] = target: T1, HEK 293 GPR73 (prokineticin 1 receptor) expressing cells (Homo sapiens, UniProt Q8TCW9); assay: PK1 functional assay: screening for PK1 antagonists on the FLIPR (calcium mobilization); assay type: cell-based; conditions: HEK 293 GPR73 cells; for Ca^2+ Mobilization % Inh @10 μM: 10 μM compound; for inhibition at 10 µM: HEK293, 10 μM compound, read-out: Ca^2+ Mobilization % Inh @10 μM; for IC50: PK1 ligand at EC50, read-out: Ca^2+ Mobilization IC50
T1 construct: expressed in transfected cells; host or cells: HEK 293
Experimental: Screening Procedure for PK1 Antagonists on the Fluorometric Imaging Plate Reader (FLIPR)
At a time of 24 h prior to running the assay, in cell culture media (DMEM containing high Glucose and L-glutamine, 10% FBS, 1% Pen/Streptomycin, 1% Sodium Pyruvate, 20 mM HEPES, Zeocin 200 mg/L), 100 μL of 1.3*10^6/ml HEK 293 GPR73 (prokineticin 1 receptor) expressing cells were plated in a 96 well poly-d-lysine coated plate (Costar), and incubated at 37 C and 5% CO2. On the day in which the assay was run, the media was removed and 200 μL of 5× Calcium Plus Dye (Molecular Devices) which was previously resuspended with 200 mL of assay buffer [HBSS w/Ca^2+ and Mg^2+ w/o phenol red, 20 mM HEPES, 0.1% BSA, 10 mL probenecid (710 mg probenecid in 5 mL of 1N NaOH, to which was then added 5 mL HBSS containing 20 mM HEPES)] was added to each well of the 96-well plate. The plate was incubated at 37 C and 5% CO2 for 30 min in dark. The plate was removed and allowed to reach RT for 15 min in the dark. The assay was then run on the FLIPR. […] Baseline is described as the amount of relative fluorescence read when buffer alone is added to cells. Baseline was subtracted from all wells. Percent of control was calculated as follows: (Baseline subtracted well value is divided by baseline subtracted max value)*100. Percent inhibition is 100 minus the percent of control value.
IC50 values were calculated using GraphPad Prism.

[2] = target: PK1 receptor (Rattus norvegicus, UniProt Q8R416); assay: Inhibition of PK1-evoked increase in Isc by PK1 receptor antagonists in Ussing-type ion flux chambers; conditions: test compound 1 μM, 15 min incubation, PK1 10 and 100 nM cumulative
Excerpt: Methodology. The basic methodology for Ussing-type ion flux chambers used in these studies was the same as that described in detail above with the following modifications to the experimental protocol.

[3] = test system: rat ileal tissues; assay: Effect of PK1 on secretion and gut mucosal ion transport (short-circuit current, Ussing-type flux chamber)
[4] = test system: ileum mucosal tissues from PK1 receptor knock-out mice; assay: PK1-evoked Isc in ileum mucosal tissues from PK1 receptor knock-out mice; conditions: exogenous PK1 peptide, PK1 receptor knock-out mice ileum mucosa

T1 sequence (Q8TCW9 whole entry): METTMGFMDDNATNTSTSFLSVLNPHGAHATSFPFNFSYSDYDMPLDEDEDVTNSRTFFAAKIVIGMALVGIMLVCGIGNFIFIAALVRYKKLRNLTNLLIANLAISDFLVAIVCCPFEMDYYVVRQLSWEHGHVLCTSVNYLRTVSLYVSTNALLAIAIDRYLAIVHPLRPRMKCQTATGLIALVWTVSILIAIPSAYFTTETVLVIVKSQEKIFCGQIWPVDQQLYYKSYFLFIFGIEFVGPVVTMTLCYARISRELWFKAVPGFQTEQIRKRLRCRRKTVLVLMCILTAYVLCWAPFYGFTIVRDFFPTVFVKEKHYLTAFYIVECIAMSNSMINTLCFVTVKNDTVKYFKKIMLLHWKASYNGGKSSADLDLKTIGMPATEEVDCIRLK
Chain of PK1 receptor (Q8R416 whole entry): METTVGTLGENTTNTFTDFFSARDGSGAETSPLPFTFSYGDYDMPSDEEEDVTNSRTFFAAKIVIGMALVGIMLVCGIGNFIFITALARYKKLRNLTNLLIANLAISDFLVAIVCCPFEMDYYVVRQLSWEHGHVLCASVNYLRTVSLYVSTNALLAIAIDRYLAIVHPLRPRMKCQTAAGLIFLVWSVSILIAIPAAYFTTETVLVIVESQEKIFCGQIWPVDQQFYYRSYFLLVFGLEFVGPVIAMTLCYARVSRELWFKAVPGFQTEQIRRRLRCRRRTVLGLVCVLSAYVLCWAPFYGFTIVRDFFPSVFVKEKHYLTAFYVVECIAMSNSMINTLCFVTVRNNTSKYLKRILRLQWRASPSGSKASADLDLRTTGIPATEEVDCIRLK

COc1ccc(Cn2c(NCCNC(=N)Nc3ccc(C#N)cc3)nc(=O)n(Cc3ccc(F)cc3)c2=O)cc1 [Cpd 90, N-(4-Cyano-phenyl)-N′-{2-[5-(4-fluoro-benzyl)-1-(4-methoxy-benzyl)-4,6-dioxo-1,4,5,6-tetrahydro-[1,3,5]triazin-2-ylamino]-ethyl}-guanidine]
Ca^2+ Mobilization % Inh @10 μM ([1]; 10 µM): 100% and 101%
inhibition at 10 µM [1]: 100%
IC50 [1]: 31 nM and 43 nM (2×)

COc1ccc(Cn2c(NCCNC(=N)Nc3ccccc3F)nc(=O)n(Cc3ccc(F)cc3)c2=O)cc1 [Cpd 118, N-{2-[5-(4-Fluoro-benzyl)-1-(4-methoxy-benzyl)-4,6-dioxo-1,4,5,6-tetrahydro-[1,3,5]triazin-2-ylamino]-ethyl}-N′-(2-fluoro-phenyl)-guanidine]
Ca^2+ Mobilization % Inh @10 μM ([1]; 10 µM): 102%
inhibition at 10 µM [1]: 98%
IC50 [1]: 6 nM

COc1ccc(Cn2c(NCCNC(=N)NCCc3ccccc3)nc(=O)n(Cc3ccc(Cl)c(Cl)c3)c2=O)cc1 [Cpd 65]
Ca^2+ Mobilization % Inh @10 μM [1]: 88%
IC50 [1]: 485 nM

[H]/N=C(\N)NCCNc1nc(=O)n(Cc2ccc(OC(C)(C)C)cc2)c(=O)n1Cc1ccc(OC)cc1 [Cpd 109]
inhibition at 10 µM [1]: 99%
IC50 [1]: 129 nM

COc1ccc(Cn2c(NCCNC(=N)NC(=O)c3ccccc3)nc(=O)n(Cc3ccc(F)cc3)c2=O)cc1 [Cpd 134, N-Benzoyl-N′-{2-[5-(4-fluoro-benzyl)-1-(4-methoxy-benzyl)-4,6-dioxo-1,4,5,6-tetrahydro-[1,3,5]triazin-2-ylamino]-ethyl}-guanidine]
Ca^2+ Mobilization % Inh @10 μM [1]: 97, 97%
inhibition at 10 µM [1]: 97%
IC50 [1]: 19 nM and 28 nM

COc1ccc(Cn2c(NCCNC(=N)N)nc(=O)n(Cc3ccccc3)c2=O)cc1 [Cpd 2]
inhibition of the PK1 evoked increase in Isc [2]: successfully achieved

COc1ccc(Cn2c(NCCNC(=N)NC(C)C)nc(=O)n(Cc3ccc(Cl)c(Cl)c3)c2=O)cc1 [Cpd 58, N-{2-[5-(3,4-Dichloro-benzyl)-1-(4-methoxy-benzyl)-4,6-dioxo-1,4,5,6-tetrahydro-[1,3,5]triazin-2-ylamino]-ethyl}-N′-isopropyl-guanidine]
Ca^2+ Mobilization % Inh @10 μM ([1]; 10 µM): 99% and 98%
inhibition at 10 µM [1]: 102%
IC50 [1]: 7 nM and 16 nM (2×)
inhibition of the PK1 evoked increase in Isc [2]: successfully achieved

COc1ccc(Cn2c(NCCNC(=N)N)nc(=O)n(CC3CCCC3)c2=O)cc1 [Cpd 124]
Ca^2+ Mobilization % Inh @10 μM [1]: 74%
IC50 [1]: 1560 nM

COc1ccc(Cn2c(NCCN(C(=N)N)c3ccccn3)nc(=O)n(Cc3ccc(F)cc3)c2=O)cc1 [Cpd 104, N-{2-[5-(4-Fluoro-benzyl)-1-(4-methoxy-benzyl)-4,6-dioxo-1,4,5,6-tetrahydro-[1,3,5]triazin-2-ylamino]-ethyl}-N-pyridin-2-yl-guanidine]
Ca^2+ Mobilization % Inh @10 μM ([1]; 10 µM): 99% and 102%
IC50 [1]: 11 nM

COc1ccc(Cn2c(NCCONC(=N)N)nc(=O)n(Cc3ccccc3)c2=O)cc1 [Cpd 10]
Ca^2+ Mobilization % Inh @10 μM [1]: 33%

COc1ccc(Cn2c(N[C@@H]3CCCC[C@H]3NC(=N)N)nc(=O)n(Cc3ccc(Cl)c(Cl)c3)c2=O)cc1 [Cpd 47]
inhibition at 10 µM [1]: 101%
IC50 [1]: 57 nM

N=C(N)NCCNc1nc(=O)n(Cc2ccccc2)c(=O)n1Cc1ccc([N+](=O)[O-])cc1 [Cpd 9]
inhibition at 10 µM [1]: 35%
IC50 [1]: > 10000 nM

COc1ccc(Cn2c(NCCNC(=N)N)nc(=O)n(Cc3ccc(F)cc3)c2=O)cc1 [Cpd 17, N-{2-[5-(4-Fluoro-benzyl)-1-(4-methoxy-benzyl)-4,6-dioxo-1,4,5,6-tetrahydro-[1,3,5]triazin-2-ylamino]-ethyl}-guanidine]
inhibition of the PK1 evoked increase in Isc [2]: successfully achieved

COc1ccc(Cn2c(NCCNC(=N)NCCc3ccccn3)nc(=O)n(Cc3ccc(F)cc3)c2=O)cc1 [Cpd 105]
Ca^2+ Mobilization % Inh @10 μM [1]: 100%
IC50 [1]: 89 nM

N-{2-[5-Benzyl-1-(4-methoxy-benzyl)-4,6-dioxo-1,4,5,6-tetrahydro-[1,3,5]triazin-2-ylamino]-ethyl}-oxyguanidine [Cpd 27]
Ca^2+ Mobilization % Inh @10 μM [1]: 55%
IC50 [1]: 1970 nM

B1: PK1: Recombinant human prokineticin-1 expressed in HEK 293 cells, FLAG cleaved; mixture of full-length ligand and four C-terminal residue truncated product (protein, UniProt P58294 20-105, looked up)
Prokineticin-1: AVITGACERDVQCGAGTCCAISLWLRGLRMCTPLGREGEECHPGSHKVPFFRKRKHHTCPCLPNLLCSRFPDGRYRCSMDLKNINF
modifications: mixture with C-terminal 4-residue truncated form
notes: Recombinant human prokineticin-1 expressed in HEK 293 cells, FLAG cleaved; mixture of full-length ligand and four C-terminal residue truncated product
increase in Isc from baseline ([3]; 10 nM PK1, […], n=33 tissues from 22 rats): 13.5±2. μA/cm^2
increase in Isc from baseline ([3]; 100 nM PK1, […], n=42 tissues from 29 rats): 28.7±2.9 μA/cm^2
concentration at which the maximal PK1-evoked response occurred ([3]; […]): 100 nM
effect on tissue conductance (G) ([3]; […]): no significant effect
time for Isc to decline back toward baseline ([3]; basolateral addition, […]): 10 to 15 min
time to peak Isc after single-dose addition ([3]; basolateral addition, […]): 2 to 4 min
pro-secretory effect in the presence of Atropine ([3]; blockade of muscarinic receptors): not blocked
pro-secretory effect in the presence of Tetrodotoxin (TTX) ([3]; nerve conduction toxin present): not blocked
change in Isc compared to wild-type littermates [4]: failed to elicit a significant change in Isc
